Data taken from patent US5958947A, “DNA-affinic hypoxia selective cytotoxins” (priority 1996, dated 1999).
Values joined by “and” are separate entries in the source; they are usually repeats but may differ in a detail not shown here. Equal entries are not always repeated. “Also recorded” adds a separate entry of the source. Structures can show the parent of a compound that is named as a salt. Where two headings read alike, the source gives them in different places.

How the values were obtained:
[1] = tested on: calf thymus Topo I; assay: Topoisomerase I interaction (relaxation of supercoiled DNA); assay type: biochemical; conditions: 800 μM, compound alone
[2] = tested on: V79 cells; assay: Isoeffective to the oxygen dose (IsD); assay type: cell-based, Chinese hamster; conditions: Cricetulus griseus; for EC (isoeffective to oxygen at 7.5 Gy): read-out: Isoeffective to the oxygen dose at 7.5 Gy: IsD(7.5); for EC (isoeffective to oxygen at 20 Gy): read-out: Isoeffective to the oxygen dose at 20 Gy: IsD
Source text: The survival fraction under hypoxic conditions (plotted versus compound concentration) meets the aerobic survival fraction (radiation toxicity) at the IsD. The IsD value is a useful indicator of the overall potency of a compound as a sensitizer and cytotoxin of hypoxic cells. IsD is especially useful when comparing different compounds for hypoxic cytotoxicity and radiosensitizing efficacy.
FIGS. 5 and 6 illustrate the IsD at 7.5 Gy (FIG. 5A) and 20 Gy (FIG. 5B). FIGS. 5A and 6A include a comparison to the prior art NLA-1 compound. V79 cells were irradiated at 7.5 Gy or 20 Gy after a 1 hour exposure under hypoxia (symbols) or air (straight line), at various drug concentrations. No toxicity or radiosensitization for any tested compound was observed under aerobic conditions over the tested concentration ranges. IsD values were calculated from the intersections of the survival fractions of the hypoxic curves with the survival fraction in air. All data points in FIGS. 5 and 6 represent the mean of two replicate experiments.

[3] = tested on: V79 cells; assay: Chemosensitization to L-PAM or cis-DDP in V79 cells; assay type: cell-based, Chinese hamster; conditions: for chemosensitization to L-PAM or cis-DDP: V79 cells
Protocol: L-PAM, also known as phenylalanine mustard and available from Sigma Chem. Co., St. Louis, Mo., first was dissolved in an ethanolic solution of HCl (0.5N). The ethanolic HCl solution was buffered with propylene glycol in a 1:9 ratio of ethanolic HCl solution to propylene glycol, and finally diluted 100 fold with suspension medium. cis-DDP, a platinum-based chemotherapeutic agent available from Sigma Chem. Co., St. Louis, Mo., was dissolved in water to a predetermined concentration.
Experiments using a simultaneous addition of the sensitizer and chemotherapeutic agent for 1 hour at 37° C. under aerobic conditions were also performed.
In all experiments, controls for the hypoxic cytotoxicity of the sensitizer and the toxicity of the chemotherapeutic alone were included. Survival curves were normalized for the hypoxic cytotoxicity of sensitizer in order to determine the dose modification factor (DMF), i.e., the ratio of chemotherapeutic agent concentrations required to reduce cell survival to a predetermined level (e.g., 0.5) alone or in combination with a sensitizer. Synergism between the chemotherapeutic agent and the chemosensitizer was determined using the fractional product concept which is applied in instances of independent action of drugs, or by isobologramic analysis. The results of the chemosensitization studies are illustrated in FIGS. 12-15.

[4] = Water solubility
[5] = Partition coefficient in octanol/water; assay type: physicochemical
Protocol: The partition coefficient of the hypoxia selective cytotoxins of the present invention were determined by the method of T. Fujita et al., J. Am. Chem. Soc., 86, 5175-5180 (1964), incorporated herein by reference.

[6] = tested on: V79 cells; assay: Drug uptake in the presence of ammonium chloride; assay type: cell-based, Chinese hamster; conditions: aerobic V79 cells, 60 μM input, 50 mM NH4Cl (stated for THNLA-1)
Protocol: Uptake measurements in the presence of the lysosomotropic agent ammonium chloride (NH4 Cl) also were performed in a manner as previously described.
Concentrations were determined by UV spectrophotometry at 330 nm. The plotted points represent the mean of two experiments.

[7] = tested on: OVCAR cells; assay: Chemosensitization of OVCAR cells to L-PAM and cis-DDP; assay type: cell-based; conditions: OVCAR cells resistant to L-PAM and cis-DDP
Source text: A longer hypoxic preexposure time and a lower sensitizer dose are preferred over a shorter hypoxic preexposure time and a higher sensitizer dose. […] OVCAR cells are resistant to L-PAM and cis-DDP.

[8] = tested on: V79 cells; assay: Drug uptake: intracellular and extracellular concentrations in V79 cells; assay type: cell-based, Chinese hamster
Protocol: Also, uptake measurements at various times under both aerobic and hypoxic conditions were made. Afterwards, the samples were pelleted by centrifuging for 6 minutes at 0° C. A small volume of the supernatant (200 μl) was combined with 9 equal volumes (1.8 ml) of acetonitrile and the remaining supernatant was discarded. The samples were centrifuged again to remove residual supernatant and the pellets were lysed with 90 μl water and deproteinized with 0.9 ml acetonitrile. After centrifugation and filtration, all samples were stored at -70° C. until a UV spectroscopic analysis was made at two different wave lengths: 330 nm (nanometers) (absorption of the nitro-group) and 244 nm (λmax). […] Mean intracellular concentration of drug was calculated using a value of 810 fl as an intracellular water content of log-phase cells.
Concentrations were determined by UV spectrophotometry at 330 nm. The plotted points represent results from two experiments, in triplicate.

[9] = Toxicity study in balb mice; assay type: in vivo
[10] = tested on: EMT6 tumors; assay: In vivo radiosensitization of EMT6 tumors; parameters: species or system balb mice; conditions: 0.103 mmol/g intraperitoneally, 20 Gy

O=[N+]([O-])c1nccn1CCCNc1c2c(nc3ccccc13)CCSC2 [S-THNLA-1, 10-[3-(2-nitroimidazolyl)propylamino]-3,4-dihydro-1-H-thiopyrano[4,3-b]quinoline hydrochloride]
formation of nicked DNA by compound alone [1]: caused the formation of some nicked DNA
EC (isoeffective to oxygen at 7.5 Gy) ([2]; V79, 1 h): 60 µM
EC (isoeffective to oxygen at 20 Gy) ([2]; V79, 1 h): ~103 µM
chemosensitization to L-PAM or cis-DDP [3]: strong chemosensitizers
solubility [4]: ~9.5 mM
Partition coefficient in octanol/water: PCo/w ([5]; hydrochloride): 0.41 and 0.40

Cl.O=[N+]([O-])c1nccn1CCCNc1c2c(nc3ccccc13)CCCC2 [THNLA-1, 9-[3-(2-nitro-1-imidazolyl)propylamino]-1,2,3,4-tetrahydroacridine hydrochloride]
factor of decrease of Ci in the presence of NH4Cl [6]: about 3
EC (isoeffective to oxygen at 7.5 Gy) ([2]; V79, 1 h, 7.5 Gy, 1 hour at 37° C.): ~40 µM
EC (isoeffective to oxygen at 20 Gy) ([2]; V79, 20 Gy, 1 hour at 37° C.): ~78 µM
chemosensitization to L-PAM and cis-DDP [7]: effectively chemosensitizes OVCAR cells
Ci over 15, 30 and 60 minutes, aerobic ([8]; 20 μM, aerobic V79 cells, 37° C.): basically unchanged
Ci over time, hypoxic ([8]; 20 μM, hypoxic V79 cells, 37° C.): a decrease of Ci over time
Ci compared with Ce ([8]; V79 cells, 37° C., input 0 to 500 μM or 20 μM): substantially greater
aerobic mean uptake factor (Ci/Ce) compared to NLA-1 ([8]; aerobic V79 cells): did not result in an increase of the aerobic mean uptake factor
input concentration at which the uptake factor (Ci/Ce) reaches a maximum ([8]; aerobic, 30 minutes, 37° C.): about 100 μM
DMF value of L-PAM at 0.5 survival fraction ([3]; 10 μM THNLA-1, 2 hours hypoxic pretreatment, then L-PAM 1 hour aerobic): 3.2
DMF value of cis-DDP at 0.5 survival fraction ([3]; 15 μM THNLA-1, 2 hours hypoxic pretreatment, then cis-DDP 1 hour aerobic): 4.2
chemosensitization to L-PAM or cis-DDP ([3]; hydrochloride): powerful potentiator of chemotherapeutic agent toxicity; also recorded: strong chemosensitizers
potentiation of L-PAM or cis-DDP under aerobic conditions ([3]; aerobic exposure): no potentiation occurred
DMF compared with NLA-1 ([3]; cis-DDP or L-PAM combination, about 30% of the IC50/H,1h, hydrochloride): slightly greater than the DMF value obtained using a combination including NLA-1; also recorded: significantly more efficacious chemosensitizer than NLA-1
interaction with L-PAM or cis-DDP ([3]; hypoxic pretreatment, isobologram and fractional product concept, hydrochloride): synergistic interaction; also recorded: dramatic decrease in survival fraction; also recorded: unexpected synergistic effect
nontoxic concentration [9]: at least 0.129 mmol/g
administration time before irradiation for maximum radiosensitization [10]: at least one hour before irradiation
radiosensitizing effect in vivo ([10]; EMT6 tumors in balb mice, hydrochloride): synergistic effect; also recorded: potent radiosensitizing effect; also recorded: enhanced the effects of 20 Gy radiation in EMT6 tumors to a similar degree as 2 mmol/g of etanidazole
solubility [4]: ~12 mM
Partition coefficient in octanol/water: PCo/w [5]: 0.14
logP ([5]; read-out: Partition coefficient in octanol/water: PCo/w (converted)): -0.854
